Measurements taken from patent US10045998B2 (BASF SE, priority 2013, dated 2018).
Where two headings read alike, the source gives them in different places.

Assays:
[1] = Aqueous solubility in purified water, 24 h equilibration, HPLC; type: physicochemical; settings: 25° C.; for Aqueous solubility S: 24 h equilibration, effective solubility of abiraterone acetate (corrected for formula mass), LOD ca. one microgram per ml
Experimental: (§1) The resulting suspension is equilibrated in a temperature-controlled Eppendorf Thermomixer Comfort shaker for 2 hours or 24 hours at 25° C. at a shaking rate of 700 rpm. After 2 hours, or 24 hours, the solid phases are recovered by filter centrifugation (0.22 μm PVDF membrane). Concentrations in the filtrate after 2 hours or 24 hours (i.e. saturated solution) are determined by HPLC using under conditions given in the below Table; limit of detection (LOD) is ca. one microgram per ml.
(§2) For the results in Table a), the medium is purified water.

[2] = Solubility of abiraterone acetate in phosphate buffer and various amounts of organic acids; type: physicochemical; settings: for solubility: thermodynamic from solid, read-out: Solubility S
Experimental: as §1, §2

[3] = biopharmaceutics classification system; report EMA/CHMP/542871/2011; cited from earlier work
[4] = recent publications; quick absorption of a small fraction of the dose; cited from earlier work
[5] = Dynamic (water) vapour sorption (DVS), hygroscopicity; type: physicochemical; settings: 25° C.
Experimental: DVS: Dynamic (water) vapour sorption (DVS) is performed with a SPS11-100n (“Sorptions Prüfsystem” moisture sorption instrument from Projekt Meβtechnik, Ulm, Germany, using about 20 mg of sample material in an aluminum pan with a change rate of 5% of total relative humidity per hour. Program starting value of 50% with equilibration for 2 hours, continuously lowering to 0%, equilibration (i.e. humidity kept constant), scanning from 0% to 95%, equilibration, scanning from 95% to 0%, equilibration, scanning from 0% to 95%, equilibration, and scanning to 50% relative humidity. Sample temp. 25° C.

[6] = pKa of the organic acid / coformer; cited from earlier work

CC(=O)O[C@H]1CC[C@@]2(C)C(=CC[C@@H]3[C@@H]2CC[C@]2(C)C(c4cccnc4)=CC[C@@H]32)C1 [Abiraterone acetate, (3β)-17-(3-pyridinyl)androsta-5,16-dien-3-yl acetate]
Aqueous solubility S [1]: <LOD
solubility ([2]; pH 3.1, aqueous buffer, phosphate buffer, no acid added, 25° C.): 2 µg/mL
solubility ([2]; phosphate buffer with ascorbic acid, pH 2.4, aqueous buffer, phosphate buffer, ascorbic acid 0.5 mol/L, 25° C.): 33 µg/mL
solubility ([2]; phosphate buffer with ascorbic acid, pH 2.8, aqueous buffer, phosphate buffer, ascorbic acid 0.1 mol/L, 25° C.): 5 µg/mL
solubility ([2]; phosphate buffer with citric acid, 25 °C, pH 2.3, aqueous buffer): 14 µg/mL
pH ([2]; phosphate buffer, ascorbic acid 0.1 mol/L): 2.8
pH ([2]; phosphate buffer, ascorbic acid 0.5 mol/L): 2.4
pH ([2]; phosphate buffer, citric acid 0.5 mol/L): 2.3
pH ([2]; phosphate buffer, no acid added): 3.1
BCS class [3]: class IV
median peak concentration, time after dosing [4]: 2 h

CC(=O)OC1CCC2(C)C(=CCC3C2CCC2(C)C(c4cccnc4)=CCC32)C1.O=C1NS(=O)(=O)c2ccccc21 (centres unmarked) [Example 6]
water up-take at 80% r.h. [5]: 0.1 to 0.2%
maximum water up-take at 95% r.h. [5]: less than 0.4%

CC(=O)O[C@H]1CC[C@@]2(C)C(=CC[C@@H]3[C@@H]2CC[C@]2(C)C(c4cccnc4)=CC[C@@H]32)C1.COc1cc(C(=O)O)ccc1O [Example 8]
water up-take at 80% r.h. [5]: about 0.2%
maximum water up-take at 95% r.h. [5]: less than 0.4%

O=C(O)[C@H](O)[C@@H](O)C(=O)O [L-Tartaric acid, L-tartaric acid]
pKa [6]: L-Tartaric acid (2.95)

CC(=O)O[C@H]1CC[C@@]2(C)C(=CC[C@@H]3[C@@H]2CC[C@]2(C)C(c4cccnc4)=CC[C@@H]32)C1.O=C(O)CC(O)C(=O)O [Example 3]
Aqueous solubility S [1]: 13.8 microgram/ml
maximum water up-take at 95% r.h. [5]: less than 4%

O=C(O)/C=C\C(=O)O [Example 4, Maleic acid]
Aqueous solubility S [1]: 14.4 microgram/ml
pH of the saturated solution ([1]; after 24 h equilibration): 2.3
